The results in this text go back to BindingDB's records for doi:10.1021/jm900075g (Wyeth Research, 2009).

In general, IC50 refers to the concentration at which inhibition is half-maximal.

The assay has as its target RAC-alpha serine/threonine-protein kinase (Homo sapiens, UniProt P31749). Kind of assay: Homogeneous Time-Resolved Fluorescence Resonance Energy Transfer Lance Assay. The settings on record: pH 7.4; 22 °C. The protocol:
AKT1 was assayed using constitutively active Myr-AKT1 in low-binding 96-well plates. The kinase reactions were initiated by the addition of assay mix containing kinase assay buffer, ATP, and a biotinylated substrate peptide. After incubation, Phosphorylated biotin-GSK3alpha was detected by the time-resolved fluorescence resonance energy transfer Lance format with all reagents obtained from Perkin-Elmer. Subsequently, the plates were read in a Victor plate reader (Wallac/Perkin-Elmer).

Sequence of RAC-alpha serine/threonine-protein kinase (P31749 whole entry): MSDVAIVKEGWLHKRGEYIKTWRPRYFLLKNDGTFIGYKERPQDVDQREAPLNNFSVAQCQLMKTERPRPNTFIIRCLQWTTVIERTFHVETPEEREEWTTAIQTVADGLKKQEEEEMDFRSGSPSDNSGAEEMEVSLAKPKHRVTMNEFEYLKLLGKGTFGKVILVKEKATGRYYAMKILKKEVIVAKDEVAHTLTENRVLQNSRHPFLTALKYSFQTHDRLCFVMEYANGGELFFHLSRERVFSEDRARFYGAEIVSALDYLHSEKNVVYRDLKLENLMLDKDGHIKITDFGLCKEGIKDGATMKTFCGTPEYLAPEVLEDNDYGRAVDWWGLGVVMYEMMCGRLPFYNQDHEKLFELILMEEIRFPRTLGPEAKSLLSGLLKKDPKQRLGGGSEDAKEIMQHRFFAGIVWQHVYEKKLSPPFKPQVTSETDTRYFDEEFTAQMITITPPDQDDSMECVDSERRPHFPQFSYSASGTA

The molecule `O=C1C[C@H]2O[C@@H](c3ccsc3)C3=C(C(=O)c4ccccc4C3=O)[C@H]2O1` [Pyranonaphthoquinone (PNQ) lactone, 11f] returned an IC50 of 122 nM. In the case of `O=C1C[C@@H]2O[C@H](c3ccsc3)C3=C(C(=O)c4ccccc4C3=O)[C@@H]2O1` [Pyranonaphthoquinone (PNQ) lactone, 11e] it was 99 nM. In the case of `C[C@H]1O[C@@H]2CC(=O)O[C@@H]2C2=C1C(=O)c1c(O)cccc1C2=O` it was 313 nM; in that of `C[C@H]1O[C@@H]2CC(=O)O[C@@H]2C2=C1C(=O)c1c(ccc(C3C[C@@H](N(C)C)[C@H](O)[C@@H](C)O3)c1O)C2=O` (some centres undefined) [Lactoquinomycin A], 149 nM.
